According to US20220298579A1, “COMPOSITIONS AND METHODS FOR PREDICTING SUSCEPTIBILITY OF CANCERS TO SYNTHETIC-LETHAL THERAPIES” (University of Florida Research Foundation, Inc., priority 2019, published 2022):

Columns and labels:
[1] = test system: EBV-infected B-cell lines; conditions: 50 μM AG490; previously demonstrated (Koganti et al. 2014); cited from earlier work
[2] = test system: EBV-positive HH514-16 Burkitt lymphoma (BL) cells; assay: DR-GFP reporter assay of HR-mediated DSB repair in BL cells; type: cell-based, human; conditions: increasing concentrations of AG490 (25 μM, 50 μM) added 18 h after DR-GFP + ISce1 transfection, harvested after another 30 h; HH514-16 BL cells
Protocol: (§1) FIGS. 2A to 2O show STAT3 restricts HR repair through Chk1 in oncovirus-transformed cells. FIGS. 2A to 2K show LCL derived from a healthy subject (FIGS. 2A-2E, 2K) and EBV-positive HH514-16 Burkitt lymphoma (BL) cells (FIGS. 2F-2J, 2K) were transfected with DR-GFP plasmid (FIGS. 2A-2D, 2F-2I) and empty vector pCAGGS (FIGS. 2A, 2F) or ISce1 plasmid (FIGS. 2B-2D, 2G-2I), treated with 25 μM (FIGS. 2C, 2H) or 50 μM (FIGS. 2D, 2I) AG490 (a selective STAT3 inhibitor) after 18 h, and harvested after another 30 h for analysis of GFP-positive cells by flow cytometry (FIGS. 2A-2D, 2F-2I) and immunoblotting for phospho(p)STAT3 and β-actin (FIG. 2K). LCL (FIG. 2E) and BL cells (FIG. 2J) were transfected in parallel with pEGFP to monitor transfection efficiency. […]
(§2) For assessment of cell-cycle distribution, cells were fixed, permeabilized, and stained with anti-EBNA2 antibody and 50 μg/ml propidium iodide supplemented with 1 μg/ml RNase A, as previously described (Hill, E. R. et al. J Virol 87:11438-11446 (2013)). […] Data were acquired using a FACS Calibur and analyzed using FlowJo software. […]

STAT3 phosphorylation = conditions: Janus kinase inhibitor; literature (Koganti 2014; Meydan 1996); cited from earlier work
[3] = test system: LCL derived from a healthy subject; assay: DR-GFP reporter assay of HR-mediated DSB repair in LCL; type: cell-based, human; conditions: increasing concentrations of AG490 (25 μM, 50 μM) added 18 h after DR-GFP + ISce1 transfection, harvested after another 30 h
Protocol: as §1, §2

[4] = test system: LCL derived from healthy subjects (EBV-transformed cells); assay: Growth of LCL in the presence of Olaparib (live cell enumeration); type: cell-based, human; conditions: Olaparib used alone, added at time 0 and every 3-4 days thereafter; all LCL (3 healthy subjects)
Description: (§3) FIGS. 3A-3F show LCL derived from 3 healthy subjects (FIGS. 3A-3C) and 3 EBV^+ BL cell lines (HH514-16, Akata, and Raji; FIGS. 3D-3F) grown in the presence of Olaparib (added at time 0 and every 3-4 days thereafter) and enumerated for live cells on indicated days. FIGS. 3G-3N show LCL (FIGS. 3G-3J) and HH514-16 BL cells (FIGS. 3K-3N) transfected with DR-GFP plasmid (FIGS. 3G, 3H, 3K, 3L) and empty vector pCAGGS (FIGS. 3G, 3K) or ISce1 plasmid (FIGS. 3H, 3L) versus EJ2 plasmid (FIGS. 3I, 3J, 3M, 3N) and pCAGGS (FIGS. 3I, 3M) or ISce1 plasmid (FIGS. 3J, 3N) and harvested after 48 h for analysis of GFP-positive cells by flow cytometry. Numbers in plots indicate percent GFP-positive cells. Experiments were performed 3 times.
(§4) Newly-infected B cells and previously established EBV-LCL were grown in culture using conditions described (Koganti, S., et al. J Virol 88:516-524 (2014)). For experiments using AG490 and Olaparib, chemicals were added to cultures at time 0. For experiments using Olaparib, the drug was supplemented at the initial concentration every fourth day. For experiments using Bleomycin, the drug was added for an hour, following which cells were washed and placed back in culture.

[5] = test system: EBV+ BL cell lines (HH514-16, Akata, and Raji); assay: Growth of EBV+ BL cell lines in the presence of Olaparib (live cell enumeration); type: cell-based, human; conditions: Olaparib used alone, effect more pronounced than on LCL
Description: as §3, §4

SMILES	toxicity to EBV-infected B-cell lines [1]	percentages of GFP+ cells (HR repair competent) [2]	inhibition of STAT3 phosphorylation (STAT3 phosphorylation)	percentages of GFP+ cells (HR repair competent) [3]	reduction in growth [4]	sensitivity to PARP inhibition (growth) [5]
N#C/C(=C/c1ccc(O)c(O)c1)C(=O)NCc1ccccc1 [AG490]	minimally toxic	increased	selectively inhibit STAT3 phosphorylation	increased		
O=C(c1cc(Cc2n[nH]c(=O)c3ccccc23)ccc1F)N1CCN(C(=O)C2CC2)CC1 [Olaparib]					> 50%	exquisite sensitivity
